# US9273077B2, “Phosphorus derivatives as kinase inhibitors” (ARIAD Pharmaceuticals, Inc., priority 2008, dated 2016)
# Biological target: T1, ALK (Homo sapiens, UniProt Q9UM73)
# T1 construct: Kinases are expressed as either kinase domains or full length constructs fused to glutathione S-transferase (GST) or polyHistidine tagged fusion proteins; made in house; host or cells: E. coli or Baculovirus-High Five (not specified which for ALK)
# Assay: inhibitory potency against ALK (kinase inhibition assay)
# Assay type: biochemical
# Source text: More specifically, the compounds described herein are screened for kinase inhibition activity as follows. Kinases suitable for use in the following protocol include, but are not limited to: ALK, Jak2, b-Raf, c-Met, Tie-2, FLT3, Abl, Lck, Lyn, Src, Fyn, Syk, Zap-70, Itk, Tec, Btk, EGFR, ErbB2, Kdr, FLT1, Tek, InsR, and AKT.
# Kinases are expressed as either kinase domains or full length constructs fused to glutathione S-transferase (GST) or polyHistidine tagged fusion proteins in either E. coli or Baculovirus-High Five expression systems. They are purified to near homogeneity by affinity chromatography as previously described (Lehr et al., 1996; Gish et al., 1995). In some instances, kinases are co-expressed or mixed with purified or partially purified regulatory polypeptides prior to measurement of activity.
# Kinase activity and inhibition can be measured by established protocols (see e.g., Braunwalder et al., 1996). In such cases, the transfer of ^33PO4 from ATP to the synthetic substrates poly(Glu, Tyr) 4:1 or poly(Arg, Ser) 3:1 attached to the bioactive surface of microtiter plates is taken as a measure of enzyme activity. After an incubation period, the amount of phosphate transferred is measured by first washing the plate with 0.5% phosphoric acid, adding liquid scintillant, and then counting in a liquid scintillation detector. The IC50 is determined by the concentration of compound that causes a 50% reduction in the amount of ^33P incorporated onto the substrate bound to the plate.
# For example, in one method, compounds can be tested for their ability to inhibit kinase activity of baculovirus-expressed ALK using a modification of the ELISA protocol reported for trkA in Angeles, T. S. et al., Anal. Biochem. 1996, 236, 49-55, which is incorporated herein by reference. Phosphorylation of the substrate, phopholipase C-gamma (PLC- ? ) generated as a fusion protein with glutathione-S-transferase (GST) as reported in rotin, D. et al., EMBO J. 1992, 11, 559-567, which is incorporated by reference, can be detected with europium-labeled anti-phosphotyrosine antibody and measured by time-resolved fluorescence (TRF). […] Detection of the phosphorylated product can be performed by adding 100 ? L/well of Eu-N1 labeled PT66 antibody (Perkim Elmer #AD0041). Incubation at 37 degrees C. then proceeds for one hour, followed by addition of 100 ? L enhancement solution (for example Wallac #1244-105). The plate is gently agitated and after thirty minutes, the fluorescence of the resulting solution can be measured (for example using EnVision 2100 (or 2102) multilabel plate reader from Perkin Elmer).
# Data analysis can then be performed. IC50 values can be calculated by plotting percent inhibition versus log10 of concentration of compound.
# The inhibition of ALK tyrosine kinase activity can also be measured using the recombinant kinase domain of the ALK in analogy to VEDG-R kinase assay described in J. Wood et al., Cancer Res 2000, 60, 2178-2189. In vitro enzyme assays using GST-ALK protein tyrosine kinase can be performed in 96-well plate as a filter binding assay in 20 mMTris.HCl, pH 7.5, 3 mM MgCl2, 10 mM MnCl2, […], 0.1 ? Ci/assay (=30 ? L) [ ? -^33P]-ATP, 2 ? M ATP, 3 ? g/mL poly (Glu, tyr 4:1) Poly-EY (sigma P-0275), 1% DMSO, 25 ng ALK enzyme. Assays can be incubated for 10 min, at ambient temperature. Reactions can be terminated by adding 50 ? L of 125 mM EDTA, and the reaction mixture can be transferred onto a MAIP Multiscreen plate (Millipore, Bedford, Mass.) previously wet with methanol, and rehydrated for 5 minutes with water. Following washing (0.5% H3PO4), plates can be counted in a liquid scintillation counter. IC50 values are calculated by linear regression analysis of the percentage inhibition.
# T1 sequence (Q9UM73 19-1620): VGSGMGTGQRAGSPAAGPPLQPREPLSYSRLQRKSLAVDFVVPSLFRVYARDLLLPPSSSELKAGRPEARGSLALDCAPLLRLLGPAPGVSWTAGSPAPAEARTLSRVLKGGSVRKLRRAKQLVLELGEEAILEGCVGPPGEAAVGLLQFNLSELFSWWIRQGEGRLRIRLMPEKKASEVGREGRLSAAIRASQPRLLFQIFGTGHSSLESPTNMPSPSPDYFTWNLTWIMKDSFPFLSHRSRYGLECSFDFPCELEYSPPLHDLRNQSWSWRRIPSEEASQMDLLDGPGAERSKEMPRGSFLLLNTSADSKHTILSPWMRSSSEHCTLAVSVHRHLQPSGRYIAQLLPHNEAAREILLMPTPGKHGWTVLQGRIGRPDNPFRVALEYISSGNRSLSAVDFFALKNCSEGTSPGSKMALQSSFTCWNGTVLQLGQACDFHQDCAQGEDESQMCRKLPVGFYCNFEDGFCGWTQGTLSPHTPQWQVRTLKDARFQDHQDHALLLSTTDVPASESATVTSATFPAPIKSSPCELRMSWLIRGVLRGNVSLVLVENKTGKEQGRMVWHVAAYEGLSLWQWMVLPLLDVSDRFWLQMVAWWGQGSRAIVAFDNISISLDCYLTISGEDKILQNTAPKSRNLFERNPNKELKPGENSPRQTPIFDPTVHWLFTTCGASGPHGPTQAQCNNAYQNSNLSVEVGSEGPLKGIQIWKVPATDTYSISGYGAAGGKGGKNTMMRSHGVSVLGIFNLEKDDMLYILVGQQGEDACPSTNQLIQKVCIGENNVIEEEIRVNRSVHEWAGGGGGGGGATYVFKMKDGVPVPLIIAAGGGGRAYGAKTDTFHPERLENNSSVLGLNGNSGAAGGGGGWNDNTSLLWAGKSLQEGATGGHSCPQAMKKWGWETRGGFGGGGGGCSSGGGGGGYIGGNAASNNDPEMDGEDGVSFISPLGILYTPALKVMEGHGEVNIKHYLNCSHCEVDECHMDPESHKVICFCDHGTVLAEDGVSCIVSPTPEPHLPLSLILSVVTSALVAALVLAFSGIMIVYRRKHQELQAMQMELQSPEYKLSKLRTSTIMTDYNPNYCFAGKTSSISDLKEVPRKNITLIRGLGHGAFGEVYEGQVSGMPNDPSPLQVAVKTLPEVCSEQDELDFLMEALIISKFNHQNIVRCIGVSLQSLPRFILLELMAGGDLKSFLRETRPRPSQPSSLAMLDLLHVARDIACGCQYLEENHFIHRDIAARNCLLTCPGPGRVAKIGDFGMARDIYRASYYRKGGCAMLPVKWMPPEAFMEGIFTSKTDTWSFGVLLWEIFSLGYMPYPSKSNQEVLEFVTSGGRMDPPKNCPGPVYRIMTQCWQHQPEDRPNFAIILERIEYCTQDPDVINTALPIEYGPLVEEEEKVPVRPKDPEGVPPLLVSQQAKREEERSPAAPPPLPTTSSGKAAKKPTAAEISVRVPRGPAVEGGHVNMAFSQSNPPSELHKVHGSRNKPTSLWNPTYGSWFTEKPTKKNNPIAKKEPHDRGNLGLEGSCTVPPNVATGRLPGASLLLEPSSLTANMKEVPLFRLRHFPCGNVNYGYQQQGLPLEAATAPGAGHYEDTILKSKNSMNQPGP
row,SMILES,IC50
1,"CC(C)S(=O)(=O)c1ccccc1Nc1nc(Nc2ccc(P(C)(C)=O)cc2)ncc1Cl [Example 18, 5-chloro-N^2-[4-(dimethylphosphoryl)phenyl]-N^4-[2-(propan-2-ylsulfonyl)phenyl]pyrimidine-2,4-diamine]",2 to 10 nM
2,"CP(C)(=O)c1ccc(Nc2ncc(C(F)(F)F)c(NN3CCOCC3)n2)cc1 [Example 8, N^2-[4-(dimethylphosphoryl)phenyl]-N^4-(morpholin-4-yl)-5-(trifluoromethyl)pyrimidine-2,4-diamine]",> 10 nM

# Other lines, results leading:
row,IC50,SMILES
1,2 to 10 nM,"COc1cc(P(C)(C)=O)ccc1Nc1ncc(C)c(Nc2ccccc2S(=O)(=O)C(C)C)n1 [Example 21, N^2-[4-(Dimethylphosphoryl)-2-methoxyphenyl]-5-methyl-N^4-[2-(propan-2-ylsulfonyl)phenyl]pyrimidine-2,4-diamine]"
2,2 to 10 nM,"CC(C)S(=O)(=O)c1ccccc1Nc1nc(Nc2ccc(P(C)(C)=O)cc2F)ncc1Cl [Example 27, 5-Chloro-N^2-[4-(dimethylphosphoryl)-2-fluorophenyl]-N^4-[2-(propan-2-ylsulfonyl)phenyl]pyrimidine-2,4-diamine]"
3,< 2 nM,"CC(C)S(=O)(=O)c1ccccc1Nc1nc(Nc2ccc(P(C)(C)=O)cc2OC(F)(F)F)ncc1Cl [Example 25, 5-Chloro-N^2-[4-(dimethylphosphoryl)-2-(trifluoromethoxy)phenyl]-N^4-[2-(propan-2-ylsulfonyl)phenyl]pyrimidine-2,4-diamine]"
